{"source": "paper PMC10700596", "about": "(Nature Communications, 2023)", "assay_type_in_all_cases": "cell-based", "key": {"320 GPCRs [1]": {"molecular_target": "320 GPCRs (Homo sapiens, UniProt O00155)"}, "320 GPCRs [2]": {"molecular_target": "320 GPCRs (Homo sapiens, UniProt O00270)"}, "320 GPCRs [3]": {"molecular_target": "320 GPCRs (Homo sapiens, UniProt O00574)"}, "320 GPCRs [4]": {"molecular_target": "320 GPCRs (Homo sapiens, UniProt O15218)"}, "320 GPCRs [5]": {"molecular_target": "320 GPCRs (Homo sapiens, UniProt O15303)", "sequence (O15303 25-877)": "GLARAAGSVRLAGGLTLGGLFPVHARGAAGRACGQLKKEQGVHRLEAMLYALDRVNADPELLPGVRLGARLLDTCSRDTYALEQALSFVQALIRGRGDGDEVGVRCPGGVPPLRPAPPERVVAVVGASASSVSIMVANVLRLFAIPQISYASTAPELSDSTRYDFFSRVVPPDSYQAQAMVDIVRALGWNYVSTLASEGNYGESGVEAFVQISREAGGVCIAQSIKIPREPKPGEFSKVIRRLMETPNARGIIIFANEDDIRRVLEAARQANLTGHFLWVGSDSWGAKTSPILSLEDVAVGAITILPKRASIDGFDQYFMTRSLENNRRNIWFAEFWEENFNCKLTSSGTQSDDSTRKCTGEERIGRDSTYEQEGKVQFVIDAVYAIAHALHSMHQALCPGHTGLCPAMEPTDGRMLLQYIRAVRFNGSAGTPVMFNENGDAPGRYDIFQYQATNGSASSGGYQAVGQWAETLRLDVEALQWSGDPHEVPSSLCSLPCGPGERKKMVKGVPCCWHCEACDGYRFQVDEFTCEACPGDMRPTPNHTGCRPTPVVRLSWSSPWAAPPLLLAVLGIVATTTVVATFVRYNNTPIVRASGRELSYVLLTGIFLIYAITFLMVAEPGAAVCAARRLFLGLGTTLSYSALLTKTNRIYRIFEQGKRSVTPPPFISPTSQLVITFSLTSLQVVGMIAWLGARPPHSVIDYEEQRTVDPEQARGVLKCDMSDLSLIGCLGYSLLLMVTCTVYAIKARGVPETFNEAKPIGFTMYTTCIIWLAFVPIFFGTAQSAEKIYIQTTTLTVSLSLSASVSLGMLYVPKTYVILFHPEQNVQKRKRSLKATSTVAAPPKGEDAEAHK"}, "320 GPCRs [6]": {"molecular_target": "320 GPCRs (Homo sapiens, UniProt O95136)"}, "320 GPCRs [7]": {"molecular_target": "320 GPCRs (Homo sapiens, UniProt P08173)"}, "320 GPCRs [8]": {"molecular_target": "320 GPCRs (Homo sapiens, UniProt P13945)", "sequence (P13945 whole entry)": "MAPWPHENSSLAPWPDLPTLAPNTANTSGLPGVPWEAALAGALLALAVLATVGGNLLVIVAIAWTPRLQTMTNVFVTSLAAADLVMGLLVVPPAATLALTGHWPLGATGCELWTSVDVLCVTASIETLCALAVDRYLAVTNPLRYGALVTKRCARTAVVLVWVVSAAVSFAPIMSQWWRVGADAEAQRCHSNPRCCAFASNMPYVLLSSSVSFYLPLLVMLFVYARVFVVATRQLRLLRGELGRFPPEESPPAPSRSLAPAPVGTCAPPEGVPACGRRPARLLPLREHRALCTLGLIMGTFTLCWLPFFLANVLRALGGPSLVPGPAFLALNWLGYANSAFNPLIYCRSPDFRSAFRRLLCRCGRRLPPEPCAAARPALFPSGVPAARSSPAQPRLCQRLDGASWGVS"}, "320 GPCRs [9]": {"molecular_target": "320 GPCRs (Homo sapiens, UniProt P18825)"}, "320 GPCRs [10]": {"molecular_target": "320 GPCRs (Homo sapiens, UniProt P25021)"}, "320 GPCRs [11]": {"molecular_target": "320 GPCRs (Homo sapiens, UniProt P32238)"}, "320 GPCRs [12]": {"molecular_target": "320 GPCRs (Homo sapiens, UniProt P32239)"}, "320 GPCRs [13]": {"molecular_target": "320 GPCRs (Homo sapiens, UniProt P32248)"}, "320 GPCRs [14]": {"molecular_target": "320 GPCRs (Homo sapiens, UniProt P35462)"}, "320 GPCRs [15]": {"molecular_target": "320 GPCRs (Homo sapiens, UniProt P37288)"}, "320 GPCRs [16]": {"molecular_target": "320 GPCRs (Homo sapiens, UniProt P41594)", "sequence (P41594 21-1212)": "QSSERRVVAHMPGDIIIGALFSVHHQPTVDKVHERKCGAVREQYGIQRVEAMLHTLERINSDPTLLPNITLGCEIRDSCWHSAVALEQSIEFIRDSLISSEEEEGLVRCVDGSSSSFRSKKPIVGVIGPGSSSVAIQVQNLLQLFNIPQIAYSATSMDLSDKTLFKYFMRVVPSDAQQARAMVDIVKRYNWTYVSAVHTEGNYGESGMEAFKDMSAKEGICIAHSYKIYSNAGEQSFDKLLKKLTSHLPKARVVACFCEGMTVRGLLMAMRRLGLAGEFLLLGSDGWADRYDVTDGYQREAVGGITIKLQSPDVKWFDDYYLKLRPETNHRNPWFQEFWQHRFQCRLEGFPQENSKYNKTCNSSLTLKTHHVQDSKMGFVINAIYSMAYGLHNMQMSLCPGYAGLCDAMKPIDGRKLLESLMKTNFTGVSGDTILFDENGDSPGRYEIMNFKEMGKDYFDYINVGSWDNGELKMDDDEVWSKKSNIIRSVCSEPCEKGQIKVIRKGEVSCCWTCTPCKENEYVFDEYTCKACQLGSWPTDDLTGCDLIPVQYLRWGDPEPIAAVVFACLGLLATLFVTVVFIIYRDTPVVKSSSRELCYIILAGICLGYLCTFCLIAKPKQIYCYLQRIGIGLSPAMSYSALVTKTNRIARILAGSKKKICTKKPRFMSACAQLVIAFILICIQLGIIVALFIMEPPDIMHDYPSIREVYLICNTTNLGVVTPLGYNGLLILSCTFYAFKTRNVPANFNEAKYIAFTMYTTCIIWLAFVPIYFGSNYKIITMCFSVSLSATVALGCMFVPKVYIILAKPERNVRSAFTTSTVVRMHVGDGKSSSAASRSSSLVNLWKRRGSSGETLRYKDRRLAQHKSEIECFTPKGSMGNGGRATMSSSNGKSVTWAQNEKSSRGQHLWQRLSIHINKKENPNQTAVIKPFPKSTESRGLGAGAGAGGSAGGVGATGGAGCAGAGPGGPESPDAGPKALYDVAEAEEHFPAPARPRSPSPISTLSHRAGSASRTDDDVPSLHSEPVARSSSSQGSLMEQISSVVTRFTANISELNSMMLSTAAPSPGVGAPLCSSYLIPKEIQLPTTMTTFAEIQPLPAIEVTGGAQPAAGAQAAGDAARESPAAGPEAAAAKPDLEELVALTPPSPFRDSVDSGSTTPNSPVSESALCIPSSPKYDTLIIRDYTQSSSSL"}, "320 GPCRs [17]": {"molecular_target": "320 GPCRs (Homo sapiens, UniProt P41595)", "sequence (P41595 whole entry)": "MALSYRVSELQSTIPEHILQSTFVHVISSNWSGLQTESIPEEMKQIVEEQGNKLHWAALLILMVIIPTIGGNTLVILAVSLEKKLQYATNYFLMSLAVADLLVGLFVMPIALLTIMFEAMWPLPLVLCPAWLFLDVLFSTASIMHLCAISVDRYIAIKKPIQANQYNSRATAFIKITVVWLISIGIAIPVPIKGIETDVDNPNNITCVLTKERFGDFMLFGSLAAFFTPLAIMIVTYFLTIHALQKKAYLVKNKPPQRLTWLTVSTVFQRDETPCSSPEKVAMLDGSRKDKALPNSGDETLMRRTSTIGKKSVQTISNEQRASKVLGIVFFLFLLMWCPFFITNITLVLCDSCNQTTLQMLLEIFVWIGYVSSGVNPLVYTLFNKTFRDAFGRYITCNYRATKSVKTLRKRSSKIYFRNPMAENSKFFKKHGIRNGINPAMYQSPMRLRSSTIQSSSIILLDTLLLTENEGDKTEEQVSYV"}, "320 GPCRs [18]": {"molecular_target": "320 GPCRs (Homo sapiens, UniProt P41968)"}, "320 GPCRs [19]": {"molecular_target": "320 GPCRs (Homo sapiens, UniProt P43088)"}, "320 GPCRs [20]": {"molecular_target": "320 GPCRs (Homo sapiens, UniProt P43115)"}, "320 GPCRs [21]": {"molecular_target": "320 GPCRs (Homo sapiens, UniProt P43116)", "sequence (P43116 whole entry)": "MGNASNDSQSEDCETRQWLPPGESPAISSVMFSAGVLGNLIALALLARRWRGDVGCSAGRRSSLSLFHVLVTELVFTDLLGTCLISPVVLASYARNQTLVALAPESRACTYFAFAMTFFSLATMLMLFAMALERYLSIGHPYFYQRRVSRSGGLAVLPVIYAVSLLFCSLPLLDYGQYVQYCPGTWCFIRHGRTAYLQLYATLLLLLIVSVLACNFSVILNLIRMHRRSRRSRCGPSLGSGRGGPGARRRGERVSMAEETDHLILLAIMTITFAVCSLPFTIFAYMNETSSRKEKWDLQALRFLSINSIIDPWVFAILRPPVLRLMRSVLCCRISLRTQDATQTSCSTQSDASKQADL"}, "320 GPCRs [22]": {"molecular_target": "320 GPCRs (Homo sapiens, UniProt P47871)"}, "320 GPCRs [23]": {"molecular_target": "320 GPCRs (Homo sapiens, UniProt P49019)"}, "320 GPCRs [24]": {"molecular_target": "320 GPCRs (Homo sapiens, UniProt P51684)"}, "320 GPCRs [25]": {"molecular_target": "320 GPCRs (Homo sapiens, UniProt Q02643)"}, "320 GPCRs [26]": {"molecular_target": "320 GPCRs (Homo sapiens, UniProt Q03431)"}, "320 GPCRs [27]": {"molecular_target": "320 GPCRs (Homo sapiens, UniProt Q14439)"}, "320 GPCRs [28]": {"molecular_target": "320 GPCRs (Homo sapiens, UniProt Q16581)"}, "320 GPCRs [29]": {"molecular_target": "320 GPCRs (Homo sapiens, UniProt Q16602)"}, "320 GPCRs [30]": {"molecular_target": "320 GPCRs (Homo sapiens, UniProt Q8IZF4)"}, "320 GPCRs [31]": {"molecular_target": "320 GPCRs (Homo sapiens, UniProt Q8NFN8)"}, "320 GPCRs [32]": {"molecular_target": "320 GPCRs (Homo sapiens, UniProt Q8TDU9)"}, "320 GPCRs [33]": {"molecular_target": "320 GPCRs (Homo sapiens, UniProt Q8TDV0)"}, "320 GPCRs [34]": {"molecular_target": "320 GPCRs (Homo sapiens, UniProt Q8TDV2)", "sequence (Q8TDV2 whole entry)": "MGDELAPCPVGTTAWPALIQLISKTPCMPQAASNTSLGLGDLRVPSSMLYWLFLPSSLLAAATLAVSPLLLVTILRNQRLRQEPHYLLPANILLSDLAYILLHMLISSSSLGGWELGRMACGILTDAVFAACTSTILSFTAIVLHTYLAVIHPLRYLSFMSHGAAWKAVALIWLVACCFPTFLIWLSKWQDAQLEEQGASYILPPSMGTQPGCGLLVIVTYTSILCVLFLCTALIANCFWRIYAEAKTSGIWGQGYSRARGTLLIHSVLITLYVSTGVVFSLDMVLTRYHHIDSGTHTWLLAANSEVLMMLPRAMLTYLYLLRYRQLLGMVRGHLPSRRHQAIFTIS"}, "320 GPCRs [35]": {"molecular_target": "320 GPCRs (Homo sapiens, UniProt Q8TDV5)"}, "320 GPCRs [36]": {"molecular_target": "320 GPCRs (Homo sapiens, UniProt Q96P68)"}, "320 GPCRs [37]": {"molecular_target": "320 GPCRs (Homo sapiens, UniProt Q96P69)"}, "320 GPCRs [38]": {"molecular_target": "320 GPCRs (Homo sapiens, UniProt Q9BZJ8)", "sequence (Q9BZJ8 whole entry)": "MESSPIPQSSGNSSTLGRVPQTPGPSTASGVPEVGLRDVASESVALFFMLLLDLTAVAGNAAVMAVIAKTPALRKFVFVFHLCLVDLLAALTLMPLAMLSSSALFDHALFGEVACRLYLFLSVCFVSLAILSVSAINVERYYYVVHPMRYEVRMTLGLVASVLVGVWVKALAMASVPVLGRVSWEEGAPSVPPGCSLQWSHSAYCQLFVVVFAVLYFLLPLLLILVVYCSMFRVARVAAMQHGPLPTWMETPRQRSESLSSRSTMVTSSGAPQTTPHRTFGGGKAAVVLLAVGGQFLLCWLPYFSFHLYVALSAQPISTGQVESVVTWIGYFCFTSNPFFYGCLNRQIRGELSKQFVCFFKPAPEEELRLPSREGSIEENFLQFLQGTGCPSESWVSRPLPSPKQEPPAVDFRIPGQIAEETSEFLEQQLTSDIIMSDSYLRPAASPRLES"}, "320 GPCRs [39]": {"molecular_target": "320 GPCRs (Homo sapiens, UniProt Q9HBX9)"}, "320 GPCRs [40]": {"molecular_target": "320 GPCRs (Homo sapiens, UniProt Q9NS66)", "sequence (Q9NS66 whole entry)": "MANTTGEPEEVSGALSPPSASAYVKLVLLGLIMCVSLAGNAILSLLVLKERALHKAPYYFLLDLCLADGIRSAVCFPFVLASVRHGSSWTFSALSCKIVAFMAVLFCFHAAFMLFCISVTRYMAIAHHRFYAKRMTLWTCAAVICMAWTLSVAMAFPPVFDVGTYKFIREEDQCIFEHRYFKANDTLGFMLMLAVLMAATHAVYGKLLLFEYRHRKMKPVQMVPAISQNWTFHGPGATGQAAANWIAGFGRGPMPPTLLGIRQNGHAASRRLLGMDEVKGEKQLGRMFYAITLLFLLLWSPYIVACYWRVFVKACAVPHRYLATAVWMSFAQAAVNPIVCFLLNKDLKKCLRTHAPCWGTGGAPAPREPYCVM"}, "320 GPCRs [41]": {"molecular_target": "320 GPCRs (Homo sapiens, UniProt Q9NS67)"}, "320 GPCRs [42]": {"molecular_target": "320 GPCRs (Homo sapiens, UniProt Q9UJ42)"}, "320 GPCRs [43]": {"molecular_target": "320 GPCRs (Homo sapiens, UniProt Q9UKP6)", "sequence (Q9UKP6 whole entry)": "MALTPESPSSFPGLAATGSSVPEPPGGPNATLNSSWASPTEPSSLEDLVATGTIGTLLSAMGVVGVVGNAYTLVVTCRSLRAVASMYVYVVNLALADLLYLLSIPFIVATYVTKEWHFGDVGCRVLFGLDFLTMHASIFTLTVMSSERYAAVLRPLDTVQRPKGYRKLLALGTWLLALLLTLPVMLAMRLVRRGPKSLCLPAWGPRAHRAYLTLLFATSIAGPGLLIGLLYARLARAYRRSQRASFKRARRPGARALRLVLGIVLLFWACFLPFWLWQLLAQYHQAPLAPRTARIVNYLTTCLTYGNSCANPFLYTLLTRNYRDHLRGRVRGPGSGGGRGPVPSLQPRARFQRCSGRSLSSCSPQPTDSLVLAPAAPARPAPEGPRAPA"}}, "note": "Where “and” joins values, the source holds several entries; their conditions need not be identical. Equal entries are not always repeated."}
{"smiles": "O=C(O)C1CCC2(CC1)CC(Nc1ncnc3[nH]c4c(F)cccc4c13)C2", "note": "(stereo not shown) [Compound 74, OC(=O)C1CCC2(CC(C2)NC=3N=CN=C4NC=5C(F)=CC=CC5C34)CC1]", "values": [{"measurement": "RLU (Fold over Basal)", "setting": "320 GPCRs [1]", "result": "1.1 Fold over Basal and 1 Fold over Basal and 0.7 Fold over Basal and 0.6 Fold over Basal"}, {"measurement": "RLU (Fold over Basal)", "setting": "320 GPCRs [2]", "result": "1.8 Fold over Basal and 1.3 Fold over Basal"}, {"measurement": "RLU (Fold over Basal)", "setting": "320 GPCRs [3]", "result": "0.7 Fold over Basal and 1.2 Fold over Basal and 0.9 Fold over Basal and 0.6 Fold over Basal"}, {"measurement": "RLU (Fold over Basal)", "setting": "320 GPCRs [4]", "result": "0.5 Fold over Basal and 0.9 Fold over Basal and 0.6 Fold over Basal"}, {"measurement": "RLU (Fold over Basal)", "setting": "320 GPCRs [5]", "result": "1.6 Fold over Basal and 0.8 Fold over Basal and 1 Fold over Basal"}, {"measurement": "RLU (Fold over Basal)", "setting": "320 GPCRs [6]", "result": "0.3 Fold over Basal and 0.2 Fold over Basal"}, {"measurement": "RLU (Fold over Basal)", "setting": "320 GPCRs [7]", "result": "1.1 Fold over Basal and 1 Fold over Basal and 1.4 Fold over Basal and 1.2 Fold over Basal"}, {"measurement": "RLU (Fold over Basal)", "setting": "320 GPCRs [8]", "result": "1.4 Fold over Basal and 1.2 Fold over Basal and 1.1 Fold over Basal and 1.3 Fold over Basal"}, {"measurement": "RLU (Fold over Basal)", "setting": "320 GPCRs [9]", "result": "0.6 Fold over Basal and 0.8 Fold over Basal"}, {"measurement": "RLU (Fold over Basal)", "setting": "320 GPCRs [10]", "result": "1 Fold over Basal and 1.4 Fold over Basal"}, {"measurement": "RLU (Fold over Basal)", "setting": "320 GPCRs [11]", "result": "1.2 Fold over Basal and 0.7 Fold over Basal and 0.6 Fold over Basal and 1 Fold over Basal"}, {"measurement": "RLU (Fold over Basal)", "setting": "320 GPCRs [12]", "result": "0.9 Fold over Basal and 1.1 Fold over Basal and 0.8 Fold over Basal"}, {"measurement": "RLU (Fold over Basal)", "setting": "320 GPCRs [13]", "result": "1 Fold over Basal and 0.9 Fold over Basal"}, {"measurement": "RLU (Fold over Basal)", "setting": "320 GPCRs [14]", "result": "0.5 Fold over Basal and 0.6 Fold over Basal"}, {"measurement": "RLU (Fold over Basal)", "setting": "320 GPCRs [15]", "result": "0.7 Fold over Basal and 1.1 Fold over Basal"}, {"measurement": "RLU (Fold over Basal)", "setting": "320 GPCRs [16]", "result": "0.8 Fold over Basal and 1.3 Fold over Basal and 0.9 Fold over Basal and 0.7 Fold over Basal"}, {"measurement": "RLU (Fold over Basal)", "setting": "320 GPCRs [17]", "result": "0.8 Fold over Basal and 0.9 Fold over Basal and 0.7 Fold over Basal and 1 Fold over Basal"}, {"measurement": "RLU (Fold over Basal)", "setting": "320 GPCRs [18]", "result": "0.5 Fold over Basal and 1 Fold over Basal and 0.7 Fold over Basal and 0.8 Fold over Basal"}, {"measurement": "RLU (Fold over Basal)", "setting": "320 GPCRs [19]", "result": "1.2 Fold over Basal and 1.4 Fold over Basal and 1 Fold over Basal"}, {"measurement": "RLU (Fold over Basal)", "setting": "320 GPCRs [20]", "result": "0.5 Fold over Basal and 0.7 Fold over Basal"}, {"measurement": "RLU (Fold over Basal)", "setting": "320 GPCRs [21]", "result": "1.1 Fold over Basal and 1.2 Fold over Basal and 2 Fold over Basal and 1.3 Fold over Basal"}, {"measurement": "RLU (Fold over Basal)", "setting": "320 GPCRs [22]", "result": "1 Fold over Basal and 0.5 Fold over Basal and 0.8 Fold over Basal"}, {"measurement": "RLU (Fold over Basal)", "setting": "320 GPCRs [23]", "result": "0.9 Fold over Basal and 0.7 Fold over Basal and 1 Fold over Basal"}, {"measurement": "RLU (Fold over Basal)", "setting": "320 GPCRs [24]", "result": "0.7 Fold over Basal and 1 Fold over Basal and 0.9 Fold over Basal"}, {"measurement": "RLU (Fold over Basal)", "setting": "320 GPCRs [25]", "result": "0.7 Fold over Basal and 0.6 Fold over Basal and 0.8 Fold over Basal"}, {"measurement": "RLU (Fold over Basal)", "setting": "320 GPCRs [26]", "result": "1.2 Fold over Basal and 1.1 Fold over Basal and 1.4 Fold over Basal"}, {"measurement": "RLU (Fold over Basal)", "setting": "320 GPCRs [27]", "result": "0.8 Fold over Basal and 1.3 Fold over Basal and 1 Fold over Basal"}, {"measurement": "RLU (Fold over Basal)", "setting": "320 GPCRs [28]", "result": "1.2 Fold over Basal and 1.3 Fold over Basal and 0.8 Fold over Basal and 1 Fold over Basal"}, {"measurement": "RLU (Fold over Basal)", "setting": "320 GPCRs [29]", "result": "0.9 Fold over Basal and 1.2 Fold over Basal and 1.4 Fold over Basal and 1.1 Fold over Basal"}, {"measurement": "RLU (Fold over Basal)", "setting": "320 GPCRs [30]", "result": "0.8 Fold over Basal and 1.1 Fold over Basal and 1.2 Fold over Basal"}, {"measurement": "RLU (Fold over Basal)", "setting": "320 GPCRs [31]", "result": "1.2 Fold over Basal and 1 Fold over Basal and 0.6 Fold over Basal"}, {"measurement": "RLU (Fold over Basal)", "setting": "320 GPCRs [32]", "result": "1.1 Fold over Basal and 0.6 Fold over Basal and 0.7 Fold over Basal"}, {"measurement": "RLU (Fold over Basal)", "setting": "320 GPCRs [33]", "result": "0.9 Fold over Basal and 0.8 Fold over Basal and 1.1 Fold over Basal"}, {"measurement": "RLU (Fold over Basal)", "setting": "320 GPCRs [34]", "result": "0.8 Fold over Basal and 0.5 Fold over Basal and 1 Fold over Basal"}, {"measurement": "RLU (Fold over Basal)", "setting": "320 GPCRs [35]", "result": "0.5 Fold over Basal and 0.6 Fold over Basal and 0.8 Fold over Basal"}, {"measurement": "RLU (Fold over Basal)", "setting": "320 GPCRs [36]", "result": 0.3, "unit": "Fold over Basal"}, {"measurement": "RLU (Fold over Basal)", "setting": "320 GPCRs [37]", "result": "1 Fold over Basal and 0.5 Fold over Basal and 0.9 Fold over Basal"}, {"measurement": "RLU (Fold over Basal)", "setting": "320 GPCRs [38]", "result": "0.8 Fold over Basal and 1.4 Fold over Basal and 1 Fold over Basal and 1.1 Fold over Basal"}, {"measurement": "RLU (Fold over Basal)", "setting": "320 GPCRs [39]", "result": "0.7 Fold over Basal and 0.9 Fold over Basal and 0.5 Fold over Basal"}, {"measurement": "RLU (Fold over Basal)", "setting": "320 GPCRs [40]", "result": "1.1 Fold over Basal and 1.2 Fold over Basal and 1 Fold over Basal and 0.6 Fold over Basal"}, {"measurement": "RLU (Fold over Basal)", "setting": "320 GPCRs [41]", "result": "0.4 Fold over Basal and 0.7 Fold over Basal and 0.8 Fold over Basal and 0.6 Fold over Basal"}, {"measurement": "RLU (Fold over Basal)", "setting": "320 GPCRs [42]", "result": "4 Fold over Basal and 2 Fold over Basal and 3.4 Fold over Basal and 3.2 Fold over Basal"}, {"measurement": "RLU (Fold over Basal)", "setting": "320 GPCRs [43]", "result": "0.6 Fold over Basal and 0.7 Fold over Basal and 0.9 Fold over Basal"}]}
